Assay results published in patent US10463644B2, “Uses of sesquiterpene lactone compounds and their derivatives in drugs preparation” (ACCENDATECH, priority 2013, dated 2019).

Experiments:
Assay type in all cases: in vivo
[1] = tested on: TNF-α secreted by synoviocyte; test: Content of TNF-α in culture supernatant of synoviocyte of RA model rats given test compound; settings: rat RA model, dose 30 mg/kg.2d; normal control 0.38 ± 0.027, NaCl 0.74 ± 0.098
From the text: (§1) Take Compound 1-50 prepared as per the method according to the present invention and employ the method provided in Reference to prepare model, group drugs and prepare culture supernatant of rat synoviocyte.
(§2) Employ the method provided in Reference to investigate the effects of the test compounds on the synoviocyte to secrete TNF-α and PGE2. Employ the method provided in Reference to investigate the effects of the test compounds on the synoviocyte to secrete IL-1β.
(§3) The experimental data of the test compound 1-50 at a dose of 30 mg/kg.2d as well as the normal control and NaCl group are as follows: […]

[2] = tested on: IL-1β secreted by synoviocyte; test: Content of IL-1β in culture supernatant of synoviocyte of RA model rats given test compound; settings: rat RA model, dose 30 mg/kg.2d; normal control 0.16 ± 0.034, NaCl 0.49 ± 0.136
From the text: as §1, §2, §3

[3] = tested on: PGE2 secreted by synoviocyte; test: Content of PGE2 in culture supernatant of synoviocyte of RA model rats given test compound; settings: rat RA model, dose 30 mg/kg.2d; normal control 8.34 ± 1.29, NaCl 32.44 ± 10.32
From the text: as §1, §2, §3

SMILES | Content of TNF-α in culture supernatant of synoviocyte (x ± s) [1] [ng/mL] | Content of IL-1β in culture supernatant of synoviocyte (x ± s) [2] [ng/mL] | Content of PGE2 in culture supernatant of synoviocyte (x ± s) [3] [ng/mL]
O=C1O[C@H]2[C@@H](CCC3(CC3)[C@@H]3CCC4(CC4)[C@H]23)[C@@H]1CN1CCCC1 [Compound 39] | 0.52 ± 0.056 | 0.34 ± 0.095 | 28.35 ± 2.15
CN(CCO)C[C@@H]1C(=O)O[C@H]2[C@H]1CCC1(CC1)[C@@H]1CCC3(CC3)[C@H]21 [Compound 40] | 0.48 ± 0.078 | 0.31 ± 0.061 | 25.34 ± 3.57
CCCCN(C)C[C@@H]1C(=O)O[C@H]2[C@H]1CCC1(CC1)[C@@H]1CCC3(CC3)[C@H]21 [Compound 41] | 0.45 ± 0.056 | 0.41 ± 0.054 | 26.63 ± 1.59
O=C1O[C@H]2[C@@H](CCC3(CC3)[C@@H]3CCC4(CC4)[C@H]23)[C@@H]1Cn1cc(CCCCO)nn1 [Compound 42] | 0.58 ± 0.055 | 0.36 ± 0.059 | 22.58 ± 4.21
O=C1O[C@H]2[C@@H](CCC3(CC3)[C@@H]3CCC4(CC4)[C@H]23)[C@@H]1Cn1cc(-c2ccccc2)nn1 [Compound 43] | 0.55 ± 0.045 | 0.43 ± 0.062 | 24.64 ± 3.95
COC(=O)c1cn(C[C@@H]2C(=O)O[C@H]3[C@H]2CCC2(CC2)[C@@H]2CCC4(CC4)[C@H]32)nn1 [Compound 44] | 0.54 ± 0.071 | 0.35 ± 0.069 | 22.14 ± 2.87
CC(O)c1cn(C[C@@H]2C(=O)O[C@H]3[C@H]2CCC2(CC2)[C@@H]2CCC4(CC4)[C@H]32)nn1 (stereo partly drawn) [Compound 45] | 0.49 ± 0.056 | 0.38 ± 0.039 | 23.26 ± 3.49
